Key:
HCT116 cells = test: Antiproliferation CCK-8 assay, HCT116; assay type: cell-based; settings: Homo sapiens, HCT-116; CCK-8, 72 h, HCT116 (wild-type BRAF); means of three independent experiments; read-out: Cellular IC50 HCT116
Experimental: (§1) HCT116 and HT-29 cells were obtained from the Shanghai Cell Bank (Type Culture Collection (TCC), Chinese Academy of Sciences) and cultured in DMEM (10–013-CVR, corning) supplemented with 10% fetal bovine serum (04-001-1A, BI), 1% penicillin/streptomycin (03-031-1B, BI).
(§2) The cells in the logarithmic phase were placed in 96-well plates (∼3000 cells/well) in a complete medium. After incubation overnight, the cells were exposed to the corresponding compounds or vehicle control at the indicated concentration for a further 72 h. Cell proliferation was evaluated using Cell Counting Kit 8 (CCK8, CK04, Dojindo Laboratories, Kumamoto, Japan). OD450 and OD650 were determined using a microplate reader. Absorbance rate (A) for each well was calculated as OD450 −OD650. […] Each IC50 value is expressed as mean ± SD. As is the absorbance rate of the test compound well, Ac is the absorbance rate of the well without either the cell or test compound, and Ab is the absorbance rate of the well with the cell and vehicle control.

BRAF^V600E = biological target: T1, BRAF^V600E (Homo sapiens, UniProt P15056, V600E); test: BRAF V600E enzymatic activity, FRET-based Z'-Lyte kinase assay; assay type: biochemical
T1 construct: purchased Invitrogen
T1 sequence (P15056 whole entry V600E): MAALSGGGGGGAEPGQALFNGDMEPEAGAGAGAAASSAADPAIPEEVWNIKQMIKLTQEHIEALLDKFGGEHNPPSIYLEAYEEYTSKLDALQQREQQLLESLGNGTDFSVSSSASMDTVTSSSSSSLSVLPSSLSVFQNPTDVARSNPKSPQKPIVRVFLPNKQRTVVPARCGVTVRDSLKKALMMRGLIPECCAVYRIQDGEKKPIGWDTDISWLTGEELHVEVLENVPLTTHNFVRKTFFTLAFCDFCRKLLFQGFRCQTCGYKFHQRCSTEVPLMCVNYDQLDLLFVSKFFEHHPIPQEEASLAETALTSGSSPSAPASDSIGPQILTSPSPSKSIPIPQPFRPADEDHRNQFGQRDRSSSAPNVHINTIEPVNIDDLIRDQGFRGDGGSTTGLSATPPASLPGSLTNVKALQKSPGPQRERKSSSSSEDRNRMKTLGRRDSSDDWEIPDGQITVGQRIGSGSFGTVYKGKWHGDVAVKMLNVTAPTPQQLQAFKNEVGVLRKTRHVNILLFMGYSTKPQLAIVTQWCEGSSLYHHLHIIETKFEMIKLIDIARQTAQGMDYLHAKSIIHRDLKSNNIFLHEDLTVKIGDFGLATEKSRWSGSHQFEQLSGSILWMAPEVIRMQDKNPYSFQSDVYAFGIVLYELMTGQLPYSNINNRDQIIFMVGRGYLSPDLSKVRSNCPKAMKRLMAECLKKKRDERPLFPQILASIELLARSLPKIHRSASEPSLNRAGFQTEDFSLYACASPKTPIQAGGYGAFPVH
Experimental: (§3) The experiments were performed according to the instructions of the manufacturer. […] For each assay, 10 μl kinase reactions were added to 384-well plate, mixed thoroughly, and incubated for 1 hour at room temperature. Then, a 5 μl development solution was added to each well and the plate was incubated for another 1 h at room temperature. Then, a 5 μl stop reagent was loaded to stop the reaction. For the control setting, a 5 μl phospho-peptide solution instead of kinase/peptide mixture was used as 100% phosphorylation control. […] The plate was measured on an EnVision Multilabel Reader (Perkin-Elmer). Curve fitting and data presentations were performed using GraphPad Prism, version 5.0. Every experiment was repeated at least two times.

HDAC6 = biological target: T2, HDAC6 (Homo sapiens, UniProt Q9UBN7); test: HDAC6 fluorescent-based enzymatic activity assay; assay type: biochemical; settings: Table 1; read-out: Enzymatic IC50 HDAC6
T2 construct: purchased BPS Bioscience
T2 sequence (Q9UBN7 1-1215): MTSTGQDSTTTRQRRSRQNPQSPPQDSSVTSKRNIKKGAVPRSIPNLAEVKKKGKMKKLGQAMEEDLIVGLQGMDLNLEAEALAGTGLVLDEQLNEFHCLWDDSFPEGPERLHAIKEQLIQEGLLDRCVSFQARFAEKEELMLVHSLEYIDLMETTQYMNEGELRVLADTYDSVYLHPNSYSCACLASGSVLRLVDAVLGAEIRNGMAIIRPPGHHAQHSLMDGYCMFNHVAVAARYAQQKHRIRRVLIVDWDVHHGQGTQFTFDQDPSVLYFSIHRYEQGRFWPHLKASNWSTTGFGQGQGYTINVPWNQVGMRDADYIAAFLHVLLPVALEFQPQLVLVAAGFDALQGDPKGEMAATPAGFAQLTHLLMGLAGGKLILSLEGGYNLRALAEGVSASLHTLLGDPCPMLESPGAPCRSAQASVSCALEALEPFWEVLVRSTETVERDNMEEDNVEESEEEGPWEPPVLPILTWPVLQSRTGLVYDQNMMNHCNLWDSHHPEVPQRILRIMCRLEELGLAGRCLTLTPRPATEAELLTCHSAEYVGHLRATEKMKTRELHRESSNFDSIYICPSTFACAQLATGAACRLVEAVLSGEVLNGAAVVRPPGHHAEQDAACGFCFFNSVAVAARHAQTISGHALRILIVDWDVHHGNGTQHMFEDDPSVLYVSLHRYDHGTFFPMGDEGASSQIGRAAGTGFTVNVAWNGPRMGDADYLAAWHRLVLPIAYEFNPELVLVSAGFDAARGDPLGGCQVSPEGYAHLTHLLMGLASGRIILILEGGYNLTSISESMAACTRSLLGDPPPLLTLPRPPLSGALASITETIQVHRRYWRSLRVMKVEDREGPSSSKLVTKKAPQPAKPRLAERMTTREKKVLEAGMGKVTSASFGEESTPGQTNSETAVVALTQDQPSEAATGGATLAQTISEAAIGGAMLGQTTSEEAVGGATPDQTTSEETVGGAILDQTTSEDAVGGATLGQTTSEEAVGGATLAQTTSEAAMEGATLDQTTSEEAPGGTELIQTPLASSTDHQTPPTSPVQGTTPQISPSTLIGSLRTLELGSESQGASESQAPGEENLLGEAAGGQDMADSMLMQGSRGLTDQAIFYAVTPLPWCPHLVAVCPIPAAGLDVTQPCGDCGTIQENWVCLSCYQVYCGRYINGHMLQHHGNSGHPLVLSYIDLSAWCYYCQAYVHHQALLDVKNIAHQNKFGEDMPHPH
Experimental: (§4) The purified recombinant Human HDACs and their corresponding substrates were purchased from BPS Bioscience (BPS Bioscience Inc., United States). The assays were carried out in a 384-well format using the BPS fluorescent–based HDAC activity assay according to the manufacturer’s protocol. In brief, […] of the HDAC reaction mixture was composed of HDAC assay buffer, […] BSA, serial diluted test compounds, appropriate concentration of HDACs, and […] fluorogenic substrate, the mixture was incubated at 37°C for 60 min, and then stopped by the addition of developer containing trypsin and TSA. After 20 min of incubation, the fluorescence was detected at the excitation wavelength of 360 nm and the emission wavelength of 460 nm using the EnVision Multilabel Reader (PerkinElmer Inc., United States). The analytical software, GraphPad Prism 5.0 (GraphPad Software, Inc., United States) was used to generate IC50 value via non-linear regression analysis.

BRAF (wild-type) [1] = test: wild-type BRAF enzymatic activity, Z'-Lyte kinase assay; assay type: biochemical; settings: ratio of enzymatic IC50
Experimental: as §3

BRAF (wild-type) [2] = biological target: T3, BRAF (wild-type) (Homo sapiens, UniProt P15056); test: as above; assay type: biochemical; settings: wild-type BRAF kinase; read-out: BRAF^wt enzymatic IC50
T3 construct: purchased Invitrogen
T3 sequence (P15056 whole entry): as the sequence (P15056 whole entry V600E) above, with E600V counted along it
Experimental: as §3

HDAC1 = biological target: T4, HDAC1 (Homo sapiens, UniProt Q13547); test: HDAC1 fluorescent-based enzymatic activity assay; assay type: biochemical; settings: Table 1; read-out: Enzymatic IC50 HDAC1
T4 construct: purchased BPS Bioscience
T4 sequence (Q13547 whole entry): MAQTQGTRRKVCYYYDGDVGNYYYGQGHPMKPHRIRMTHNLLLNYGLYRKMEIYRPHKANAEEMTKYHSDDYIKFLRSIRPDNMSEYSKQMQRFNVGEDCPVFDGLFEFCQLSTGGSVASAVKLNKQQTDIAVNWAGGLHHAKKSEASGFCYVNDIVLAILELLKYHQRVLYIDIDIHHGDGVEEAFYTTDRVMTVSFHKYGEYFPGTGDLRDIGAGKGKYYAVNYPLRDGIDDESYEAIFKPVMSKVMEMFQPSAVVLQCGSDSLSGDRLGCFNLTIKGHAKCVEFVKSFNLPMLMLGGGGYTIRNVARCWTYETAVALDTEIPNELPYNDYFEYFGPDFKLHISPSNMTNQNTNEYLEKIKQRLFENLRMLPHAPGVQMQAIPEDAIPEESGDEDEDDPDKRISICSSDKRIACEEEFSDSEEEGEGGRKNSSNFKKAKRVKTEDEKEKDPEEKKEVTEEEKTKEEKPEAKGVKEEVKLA
Experimental: as §4

HT-29 cells = test: Antiproliferation CCK-8 assay, HT-29; assay type: cell-based; settings: Homo sapiens; CCK-8, 72 h, HT-29 (BRAF^V600E); means of three independent experiments; read-out: Cellular IC50 HT-29
Experimental: as §1, §2

HDAC8 = biological target: T5, HDAC8 (Homo sapiens, UniProt Q9BY41); test: HDAC8 fluorescent-based enzymatic activity assay; assay type: biochemical; settings: for fold more potent than 14b against HDAC8: HDAC8 IC50 relative to 14b; for IC50: Supplementary Table 1, read-out: HDAC8 Enzymatic IC50
T5 construct: purchased BPS Bioscience
T5 sequence (Q9BY41 1-377): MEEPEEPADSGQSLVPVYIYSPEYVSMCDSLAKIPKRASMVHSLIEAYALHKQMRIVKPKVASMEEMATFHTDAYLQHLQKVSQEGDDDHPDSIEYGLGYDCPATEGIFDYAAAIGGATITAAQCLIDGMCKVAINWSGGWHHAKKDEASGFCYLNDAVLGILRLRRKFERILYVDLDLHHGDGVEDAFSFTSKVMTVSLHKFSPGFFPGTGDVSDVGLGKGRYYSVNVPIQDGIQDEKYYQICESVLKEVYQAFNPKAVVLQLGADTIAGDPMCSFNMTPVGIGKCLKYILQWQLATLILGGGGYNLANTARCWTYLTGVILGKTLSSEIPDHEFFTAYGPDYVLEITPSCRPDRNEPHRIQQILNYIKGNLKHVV
Experimental: as §4

| Structure (SMILES) | IC50 (HCT116 cells) | IC50 (BRAF^V600E) | IC50 (HDAC6) | selectivity of BRAF^V600E over wild-type BRAF (BRAF (wild-type) [1]) | IC50 (BRAF (wild-type) [2]) | IC50 (HDAC1) | IC50 (HT-29 cells) | fold more potent than 14b against HDAC8 (HDAC8) | IC50 (HDAC8) |
| --- | --- | --- | --- | --- | --- | --- | --- | --- | --- |
| O=C(CCCCCCNc1nccc(-c2sc(-c3ccccc3)nc2-c2cccc(NS(=O)(=O)c3c(F)cccc3F)c2F)n1)NO [14j, 7-{[4-(4-(3-(2,6-Difluorophenylsulfonamido)-2-Fluorophenyl)-2-Phenylthiazol-5-yl)Pyrimidin-2-yl]Amino}-N-Hydroxyheptanamide] | 1080 nM | 5.14 nM | 140 nM | slightly more potent against wild-type BARF | 3.86 nM | 15.6 nM | 950 nM | 3.4 fold | 876 nM |
| CC(C)(C)c1nc(-c2cccc(NS(=O)(=O)c3ccccc3)c2F)c(-c2ccnc(NCCCCCCC(=O)NO)n2)s1 [21c, 7-{[4-(2-(Tert-Butyl)-4-(2-Fluoro-3-(Phenylsulfonamido)Phenyl)Thiazol-5-yl)Pyrimidin-2-yl]Amino}-N-Hydroxyheptanamide] | 2060 nM | 1.26 nM | 101 nM | about 2 fold | 2.86 nM | 474 nM | 110 nM | 4.8 fold | 623 nM |
